Measurements reported in paper PMC3393087 (Journal of the American Chemical Society, 2010).
Values after ≈ are worked out from the molar mass of the structure shown. Where two headings read alike, the source gives them in different places.

Legend:
[1] = tested on: A. baumannii strain JC7/04 pAT-RA; assay: microbe, parasite or virus in culture; assay type: cell-based, Acinetobacter baumannii
[2] = tested on: A. baumannii strain JC7/04 pAT-RA/OXA-24 (WT); assay: microbe, parasite or virus in culture; assay type: cell-based, Acinetobacter baumannii
[3] = target: OXA-24 Tyr112Ala (Acinetobacter baumannii, UniProt Q8RLA6, Y112A); settings: substrate hydrolysis by OXA-24 Tyr112Ala
[4] = target: OXA-24 Tyr112Ala Met 223Ala (Acinetobacter baumannii, UniProt Q8RLA6, M223A/Y112A); settings: substrate hydrolysis by OXA-24 Tyr112Ala Met223Ala
[5] = tested on: A. baumannii strain JC7/04 pAT-RA/OXA-24 (Y112A,M223A); assay: microbe, parasite or virus in culture; assay type: cell-based; settings: Acinetobacter baumannii
[6] = pAT-RA without blaOXA-24, tazobactam, 1-5 tested at 16 μg/ml, 50 μg/mL rifampin
[7] = pAT-RA/OXA-24 (WT), tazobactam, 1-5 tested at 4 μg/ml, 50 μg/mL rifampin
[8] = pAT-RA/OXA-24 (WT), tazobactam, 1-5 tested at 16 μg/ml, 50 μg/mL rifampin

Row | SMILES | MIC ([1]; Acinetobacter baumannii, JC7/04PATRA, read-out: MIC of inhibitor alone) | reduction in MICs of meropenem or imipenem ([2]; inhibitor at 4 μg/ml combined with meropenem or imipenem, blaOXA-24 expressed) | Km [3] | Km [4] | MIC [1, 6] | MIC ([2]; Acinetobacter baumannii) | MIC [2, 7] | MIC [2, 8] | MIC [5] | MIC ([1]; pAT-RA without blaOXA-24, tazobactam, 1-5 tested at 4 μg/ml, 50 μg/mL rifampin)
1 | C[C@]1(Cn2ccnn2)[C@H](C(=O)O)N2C(=O)C[C@H]2S1(=O)=O [tazobactam] | > 64 µg/mL | did not detect a reduction in MICs |  |  |  |  |  |  |  | 
2 | O=C(Cc1cccs1)N[C@@H]1C(=O)N2C(C(=O)O)=C(/C=C/c3ccc([N+](=O)[O-])cc3[N+](=O)[O-])CS[C@H]12 [NCF, nitrocefin] |  |  | 238 µM | 143 µM |  |  |  |  |  | 
3 | C[C@@H](O)[C@H]1C(=O)N2C(C(=O)O)=C(SCCN=CN)C[C@H]12 [Imipenem, imipenem] |  |  |  |  | 1 µg/mL | 32 µg/mL (≈ 107 µM) | 32 µg/mL | 32 µg/mL | 4 µg/mL (≈ 13.4 µM) | 
4 | C[C@@H](O)[C@H]1C(=O)N2C(C(=O)O)=C(S[C@@H]3CN[C@H](C(=O)N(C)C)C3)[C@H](C)[C@H]12 [Meropenem, meropenem] |  |  |  |  | 1 µg/mL | 32 µg/mL (≈ 83.4 µM) | 32 µg/mL | 32 µg/mL | 2 µg/mL (≈ 5.22 µM) | 1 µg/mL
